Laboratory results reported in ChEMBL document CHEMBL3991601, “The target landscape of clinical kinase drugs” (Science, 2017).
Activity calls are given as the source filed them.

Tests used:
[1] = biological target: T1, Serine/threonine-protein kinase TBK1 (Homo sapiens, UniProt Q9UHD2)
T1 sequence (Q9UHD2 whole entry): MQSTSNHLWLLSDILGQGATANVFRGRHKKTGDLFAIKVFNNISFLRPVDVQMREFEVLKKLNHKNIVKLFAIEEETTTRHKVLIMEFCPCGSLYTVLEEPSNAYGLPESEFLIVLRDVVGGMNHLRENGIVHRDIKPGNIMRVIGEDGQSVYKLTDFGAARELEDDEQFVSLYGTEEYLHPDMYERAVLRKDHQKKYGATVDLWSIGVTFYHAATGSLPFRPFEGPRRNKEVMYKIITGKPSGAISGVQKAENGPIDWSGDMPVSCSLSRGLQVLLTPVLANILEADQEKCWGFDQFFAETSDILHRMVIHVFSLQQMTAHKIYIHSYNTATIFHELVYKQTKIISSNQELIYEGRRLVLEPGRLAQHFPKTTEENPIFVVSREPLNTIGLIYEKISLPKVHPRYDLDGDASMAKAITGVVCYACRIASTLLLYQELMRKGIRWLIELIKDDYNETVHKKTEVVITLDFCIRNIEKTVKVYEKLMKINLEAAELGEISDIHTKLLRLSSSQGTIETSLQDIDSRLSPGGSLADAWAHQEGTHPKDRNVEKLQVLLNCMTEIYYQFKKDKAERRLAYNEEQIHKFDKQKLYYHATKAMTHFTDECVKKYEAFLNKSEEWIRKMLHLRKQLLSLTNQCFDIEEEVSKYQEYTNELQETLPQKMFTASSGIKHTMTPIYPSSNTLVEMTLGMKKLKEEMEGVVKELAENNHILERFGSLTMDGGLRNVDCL

[2] = biological target: Serine/threonine-protein kinase SIK2 (Homo sapiens, UniProt Q9H0K1)
[3] = biological target: T2, Phenylalanine--tRNA ligase beta subunit (Homo sapiens, UniProt Q9NSD9)
T2 sequence (Q9NSD9 whole entry): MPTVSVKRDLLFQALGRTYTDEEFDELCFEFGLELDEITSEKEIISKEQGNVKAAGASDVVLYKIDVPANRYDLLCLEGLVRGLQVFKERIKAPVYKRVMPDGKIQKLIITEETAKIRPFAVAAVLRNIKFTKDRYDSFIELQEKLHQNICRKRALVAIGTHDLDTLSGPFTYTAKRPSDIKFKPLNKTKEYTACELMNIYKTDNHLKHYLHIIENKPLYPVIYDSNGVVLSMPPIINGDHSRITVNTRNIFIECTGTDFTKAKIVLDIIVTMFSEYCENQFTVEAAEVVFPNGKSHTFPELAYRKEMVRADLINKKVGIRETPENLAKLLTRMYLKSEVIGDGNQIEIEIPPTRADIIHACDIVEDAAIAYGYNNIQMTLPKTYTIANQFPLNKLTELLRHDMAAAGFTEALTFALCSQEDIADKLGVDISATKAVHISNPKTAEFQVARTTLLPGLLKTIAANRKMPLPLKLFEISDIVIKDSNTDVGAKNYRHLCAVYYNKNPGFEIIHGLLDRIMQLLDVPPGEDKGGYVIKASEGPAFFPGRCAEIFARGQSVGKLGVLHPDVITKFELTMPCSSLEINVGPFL

[4] = biological target: T3, Glycogen phosphorylase, brain form (Homo sapiens, UniProt P11216)
T3 sequence (P11216 whole entry): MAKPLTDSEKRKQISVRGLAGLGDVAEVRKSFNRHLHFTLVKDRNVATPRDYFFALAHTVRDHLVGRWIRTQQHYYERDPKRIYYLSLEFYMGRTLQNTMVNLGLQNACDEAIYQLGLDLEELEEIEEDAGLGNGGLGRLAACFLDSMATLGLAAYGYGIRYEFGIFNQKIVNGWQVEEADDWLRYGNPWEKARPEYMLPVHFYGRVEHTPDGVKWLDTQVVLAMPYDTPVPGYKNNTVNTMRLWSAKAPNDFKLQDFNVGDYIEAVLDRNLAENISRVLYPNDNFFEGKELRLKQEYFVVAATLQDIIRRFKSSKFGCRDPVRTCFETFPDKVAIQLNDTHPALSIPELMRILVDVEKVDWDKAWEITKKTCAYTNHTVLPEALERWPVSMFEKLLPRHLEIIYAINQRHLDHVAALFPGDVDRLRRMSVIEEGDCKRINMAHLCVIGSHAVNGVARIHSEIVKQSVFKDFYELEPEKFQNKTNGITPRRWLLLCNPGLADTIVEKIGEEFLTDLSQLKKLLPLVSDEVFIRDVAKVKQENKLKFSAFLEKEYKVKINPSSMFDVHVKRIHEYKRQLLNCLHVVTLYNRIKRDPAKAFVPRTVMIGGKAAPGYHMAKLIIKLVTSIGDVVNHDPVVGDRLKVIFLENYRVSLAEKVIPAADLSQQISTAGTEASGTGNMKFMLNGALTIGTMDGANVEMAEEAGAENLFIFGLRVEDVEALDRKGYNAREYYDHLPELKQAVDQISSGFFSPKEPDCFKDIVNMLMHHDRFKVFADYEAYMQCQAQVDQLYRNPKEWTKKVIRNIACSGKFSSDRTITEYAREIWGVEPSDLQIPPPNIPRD
Also: in the data inactive means no Kd found up to 30 µM.

Chain of Serine/threonine-protein kinase SIK2 (Q9H0K1 whole entry): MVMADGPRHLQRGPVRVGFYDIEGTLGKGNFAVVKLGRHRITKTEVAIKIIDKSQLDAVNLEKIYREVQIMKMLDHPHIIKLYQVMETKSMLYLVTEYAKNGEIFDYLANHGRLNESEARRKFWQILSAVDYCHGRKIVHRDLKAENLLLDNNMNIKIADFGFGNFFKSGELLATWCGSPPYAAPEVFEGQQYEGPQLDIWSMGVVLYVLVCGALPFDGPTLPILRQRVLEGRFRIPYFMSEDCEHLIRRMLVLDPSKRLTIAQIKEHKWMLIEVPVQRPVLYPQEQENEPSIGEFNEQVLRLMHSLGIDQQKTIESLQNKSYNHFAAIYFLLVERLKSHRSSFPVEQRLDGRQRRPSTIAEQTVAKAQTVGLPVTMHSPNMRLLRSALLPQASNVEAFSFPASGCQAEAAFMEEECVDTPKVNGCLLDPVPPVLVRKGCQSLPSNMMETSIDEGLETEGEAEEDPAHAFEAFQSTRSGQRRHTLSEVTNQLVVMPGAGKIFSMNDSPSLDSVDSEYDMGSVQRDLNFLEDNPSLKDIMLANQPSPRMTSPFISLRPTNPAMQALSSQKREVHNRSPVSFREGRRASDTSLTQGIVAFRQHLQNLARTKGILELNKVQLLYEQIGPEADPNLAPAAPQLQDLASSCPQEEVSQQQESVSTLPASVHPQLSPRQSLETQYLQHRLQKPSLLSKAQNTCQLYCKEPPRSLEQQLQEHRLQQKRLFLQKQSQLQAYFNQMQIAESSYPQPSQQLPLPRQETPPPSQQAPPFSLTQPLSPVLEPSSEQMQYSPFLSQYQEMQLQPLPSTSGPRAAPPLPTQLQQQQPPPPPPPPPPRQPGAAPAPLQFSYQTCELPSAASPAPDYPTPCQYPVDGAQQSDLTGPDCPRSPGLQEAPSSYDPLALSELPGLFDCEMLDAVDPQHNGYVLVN

| Structure (SMILES) | Kd [1] | Kd [2] | Kd [3] | Kd [4] |
| --- | --- | --- | --- | --- |
| COc1c(OCCCN2CCOCC2)ccc2c1N=C(NC(=O)c1cnc(N)nc1)N1CCN=C21 [COPANLISIB] | > 30 µM (inactive) | > 30 µM (inactive) | > 30 µM (inactive) | > 30 µM (inactive) |
| COCC(=O)NC/C=C/c1ccc2ncnc(Nc3ccc(Oc4ccc(C)nc4)c(C)c3)c2c1 [CP-724714] | > 30 µM (inactive) | > 30 µM (inactive) | > 30 µM (inactive) | > 30 µM (inactive) |
| C#Cc1cccc(Nc2ncnc3cc(OC)c(OCCCCCCC(=O)NO)cc23)c1 [CUDC-101] | > 30 µM (inactive) | > 30 µM (inactive) | > 30 µM (inactive) | > 30 µM (inactive) |
| CC(C)(C)c1nc(-c2cccc(NS(=O)(=O)c3c(F)cccc3F)c2F)c(-c2ccnc(N)n2)s1 [DABRAFENIB] | > 30 µM (inactive) | 0.649 µM (active) | > 30 µM (inactive) | > 30 µM (inactive) |
| O=C(Nc1nc2cccc(-c3ccc(CN4CCS(=O)(=O)CC4)cc3)n2n1)C1CC1 [FILGOTINIB] | > 30 µM (inactive) | > 30 µM (inactive) | > 30 µM (inactive) | > 30 µM (inactive) |
| Cc1cccc(-c2nn3c(c2-c2ccnc4ccc(C(N)=O)cc24)CCC3)n1 [GALUNISERTIB] | > 30 µM (inactive) | > 30 µM (inactive) | > 30 µM (inactive) | > 30 µM (inactive) |
| CCn1cc(-c2ccnc3[nH]c(-c4cccc(CN(C)C)c4)cc23)c(-c2ccc(NC(=O)N(C)C)cc2)n1 [GSK-1070916] | > 30 µM (inactive) | 0.685 µM (active) | > 30 µM (inactive) | > 30 µM (inactive) |
| COc1ccc(S(=O)(=O)N(C(C)=O)c2ccccc2/C=C/c2cc[n+]([O-])cc2)cc1 [HMN-214] | > 30 µM (inactive) | > 30 µM (inactive) | > 30 µM (inactive) | > 30 µM (inactive) |
| O=C(Nc1cc(C(F)(F)F)cc(C(F)(F)F)c1)c1cc(Cl)ccc1O [IMD-0354] | > 30 µM (inactive) | > 30 µM (inactive) | > 30 µM (inactive) | > 30 µM (inactive) |
| CNC(=O)c1cccc2cc(Oc3ccnc4cc(OCC5(N)CC5)c(OC)cc34)ccc12 [LUCITANIB] | > 30 µM (inactive) | > 30 µM (inactive) | > 30 µM (inactive) | > 30 µM (inactive) |
| CNC(=O)c1nn(C)c2c1C(C)(C)Cc1cnc(Nc3ccc(N4CCN(C)CC4)cc3)nc1-2 [MILCICLIB] | 2.09 µM (active) | 0.11 µM (active) | > 30 µM (inactive) | > 30 µM (inactive) |
| NC1(c2ccc(-c3nc4ccn5c(=O)[nH]nc5c4cc3-c3ccccc3)cc2)CCC1 [MK-2206] | > 30 µM (inactive) | > 30 µM (inactive) | > 30 µM (inactive) | > 30 µM (inactive) |
| CN(C[C@@H]1COCCO1)S(=O)(=O)Nc1ccc2ccc3ncc(-c4cnn(C)c4)cc3c(=O)c2c1 [MK-2461] | > 30 µM (inactive) | > 30 µM (inactive) | > 30 µM (inactive) | > 30 µM (inactive) |
| Cn1cc(-c2cnc3ccc4ccc(CS(=O)(=O)NCc5ccccn5)cc4c(=O)c3c2)cn1 [MK-8033] | > 30 µM (inactive) | > 30 µM (inactive) | > 30 µM (inactive) | > 30 µM (inactive) |
| FC(F)(F)c1ccc(/C=C/c2nc(COc3ccc(CCCCn4ccnn4)cc3)co2)cc1 [MUBRITINIB] | > 30 µM (inactive) | > 30 µM (inactive) | > 30 µM (inactive) | > 30 µM (inactive) |
| COc1ncc(-c2ccc3nccc(-c4ccnnc4)c3c2)cc1NS(=O)(=O)c1ccc(F)cc1F [OMIPALISIB] | > 30 µM (inactive) | > 30 µM (inactive) | > 30 µM (inactive) | > 30 µM (inactive) |
| Cc1[nH]c(/C=C2\C(=O)Nc3ccccc32)c(C)c1CCC(=O)O [ORANTINIB] | 1.98 µM (active) | > 30 µM (inactive) | > 30 µM (inactive) | > 30 µM (inactive) |
| CCCCCCCCCCCCCCCCCCOP(=O)([O-])OC1CC[N+](C)(C)CC1 [PERIFOSINE] | > 30 µM (inactive) | > 30 µM (inactive) | > 30 µM (inactive) | > 30 µM (inactive) |
